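Five compound concentrations were applied to cells in 96-well plates for 48 hours; endpoints were derived by simple linear interpolation of the resulting dose-response curve. GI50: concentration for 50% inhibition of growth.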 Activity calls are given as the source filed them. Rule as the data show it: active = GI50 up to about 1.1 µM and inactive = higher.
Columns and labels:
Assay in all cases: inhibition of tumour cell growth, NCI panel, 48 h
[1] = tested on: A549
[2] = tested on: HCT-116
[3] = tested on: HCT-15
[4] = tested on: IGROV-1
[5] = tested on: K562
[6] = tested on: KM12
[7] = tested on: OVCAR-3
[8] = tested on: SF-295
[9] = tested on: SK-MEL-2
[10] = tested on: SK-OV-3
[11] = tested on: SNB-19
[12] = tested on: U-251
[13] = tested on: UACC-257
[14] = tested on: UACC-62
[15] = tested on: 786-0
[16] = tested on: COLO 205
[17] = tested on: HOP-62
[18] = tested on: M14
[19] = tested on: OVCAR-5
[20] = tested on: HOP-92

| Compound | GI50 [1] | GI50 [2] | GI50 [3] | GI50 [4] | GI50 [5] | GI50 [6] | GI50 [7] | GI50 [8] | GI50 [9] | GI50 [10] | GI50 [11] | GI50 [12] | GI50 [13] | GI50 [14] | GI50 [15] | GI50 [16] | GI50 [17] | GI50 [18] | GI50 [19] | GI50 [20] |
| --- | --- | --- | --- | --- | --- | --- | --- | --- | --- | --- | --- | --- | --- | --- | --- | --- | --- | --- | --- | --- |
| O=c1c2cc3c(=O)n(CCc4ccccc4CO)c(=O)c3cc2c(=O)n1CCc1ccccc1CO | > 100 µM (inactive) | > 100 µM (inactive) | > 100 µM | > 100 µM (inactive) | > 100 µM (inactive) | > 100 µM (inactive) | > 100 µM (inactive) | 46.6 µM (inactive) | > 100 µM (inactive) | > 100 µM (inactive) | > 100 µM (inactive) | > 100 µM (inactive) | > 100 µM (inactive) | > 100 µM (inactive) |  |  |  |  |  |  |
| CCOC(=O)CC1c2ccc(O)cc2OC(=O)C1c1ccc(N)cc1 (stereo not given) | > 100 µM (inactive) | > 100 µM (inactive) | > 100 µM | > 100 µM (inactive) | > 100 µM (inactive) | > 100 µM (inactive) | > 100 µM (inactive) | > 100 µM (inactive) | > 100 µM (inactive) | > 100 µM (inactive) | > 100 µM (inactive) | > 100 µM (inactive) | > 100 µM (inactive) | > 100 µM (inactive) | > 100 µM (inactive) | > 100 µM (inactive) | 4.34 µM (inactive) | > 100 µM (inactive) |  |  |
| CC(=O)OCCN(C1=NCCN1)/[N+](C=c1ccc(=C=[N-])cc1)=C/c1ccc(C#N)cc1 | > 100 µM (inactive) | > 100 µM (inactive) | > 100 µM | > 100 µM (inactive) | > 100 µM (inactive) | > 100 µM (inactive) | > 100 µM (inactive) | > 100 µM (inactive) | > 100 µM (inactive) | > 100 µM (inactive) | > 100 µM (inactive) | > 100 µM (inactive) | > 100 µM (inactive) | > 100 µM (inactive) | > 100 µM (inactive) | > 100 µM (inactive) | > 100 µM (inactive) | > 100 µM (inactive) | > 100 µM (inactive) |  |
| Cc1c2c(n(CCc3ccc(Cl)cc3)c1C)NN=C(C#N)S2(=O)=O | > 100 µM (inactive) | > 100 µM (inactive) | > 100 µM | > 100 µM (inactive) | 84.7 µM (inactive) | > 100 µM (inactive) | > 100 µM (inactive) |  | > 100 µM (inactive) | > 100 µM (inactive) | > 100 µM (inactive) | > 100 µM (inactive) | > 100 µM (inactive) | > 100 µM (inactive) | > 100 µM (inactive) | > 100 µM (inactive) | > 100 µM (inactive) | 91.4 µM (inactive) | > 100 µM (inactive) |  |
| COc1cccc(/C=N/n2c(-c3ccccc3)n[nH]c2=O)c1 | 91.2 µM (inactive) | 28.2 µM (inactive) | > 100 µM |  | > 100 µM (inactive) | 85.5 µM (inactive) | > 100 µM (inactive) | 21.2 µM (inactive) | 34.6 µM (inactive) | 44.2 µM (inactive) | 35.7 µM (inactive) | 34.5 µM (inactive) | 42.6 µM (inactive) | 72.4 µM (inactive) | 40.8 µM (inactive) | > 100 µM (inactive) | 25.9 µM (inactive) | > 100 µM (inactive) | > 100 µM (inactive) |  |
| O=[N+]([O-])c1cc(Cl)c(Cl)cc1[N+](=O)[O-] | 2.29 µM (inactive) | 20.1 µM (inactive) | 2.85 µM | 1.98 µM (inactive) | 2.43 µM (inactive) | 3.27 µM (inactive) | 1.48 µM (inactive) | 3.08 µM (inactive) | 2.44 µM (inactive) |  |  | 2 µM (inactive) | 2.15 µM (inactive) | 2.23 µM (inactive) | 2.8 µM (inactive) | 5.77 µM (inactive) | 2.74 µM (inactive) | 3.51 µM (inactive) | 2.51 µM (inactive) |  |
| COC(=O)c1ccccc1NC(=O)C(=O)CC(=O)CC(c1ccccc1)c1c(O)c2ccccc2oc1=O (stereo not given) | > 100 µM (inactive) | > 100 µM (inactive) |  | > 100 µM (inactive) | > 10 µM (inactive) | > 100 µM (inactive) | > 100 µM (inactive) | > 100 µM (inactive) | > 100 µM (inactive) | > 100 µM (inactive) | > 100 µM (inactive) |  | > 100 µM (inactive) | > 100 µM (inactive) | > 100 µM (inactive) | > 100 µM (inactive) | > 100 µM (inactive) | > 100 µM (inactive) | > 100 µM (inactive) |  |
| O=C(/C=C/c1ccc2c(c1)OCO2)CC(=O)/C=C/c1ccc2c(c1)OCO2 | > 100 µM (inactive) | 37.5 µM (inactive) | > 100 µM | 23.5 µM (inactive) | 80.2 µM (inactive) | 3.56 µM (inactive) | 27.1 µM (inactive) | > 100 µM (inactive) | > 100 µM (inactive) | > 100 µM (inactive) | 92.7 µM (inactive) | 91.4 µM (inactive) |  | > 100 µM (inactive) | 49.8 µM (inactive) | > 100 µM (inactive) | > 100 µM (inactive) | > 100 µM (inactive) | > 100 µM (inactive) |  |
| CNc1cc(Cl)ccc1C(=O)N1CCC[C@H]1CO | > 100 µM (inactive) | > 100 µM (inactive) | > 100 µM | > 100 µM (inactive) |  | > 100 µM (inactive) |  | > 100 µM (inactive) | > 100 µM (inactive) | > 100 µM (inactive) | > 100 µM (inactive) | > 100 µM (inactive) | > 100 µM (inactive) | > 100 µM (inactive) | > 100 µM (inactive) | > 100 µM (inactive) | > 100 µM (inactive) | > 100 µM (inactive) | > 100 µM (inactive) |  |
| CCOC(=O)C(COS(C)(=O)=O)(COS(C)(=O)=O)C(=O)OCC | > 100 µM (inactive) | > 100 µM (inactive) | > 100 µM |  | > 100 µM (inactive) | > 100 µM (inactive) | > 100 µM (inactive) | > 100 µM (inactive) |  | > 100 µM (inactive) | > 100 µM (inactive) | > 100 µM (inactive) | > 100 µM (inactive) |  |  | > 100 µM (inactive) |  | > 100 µM (inactive) |  | > 100 µM (inactive) |
| CCN(CC)Cc1ccc(C(=S)Nc2ccc(Cl)cc2)s1 | 11.2 µM (inactive) | 10.5 µM (inactive) | 10.7 µM | 11.4 µM (inactive) | 1.87 µM (inactive) | 11.9 µM (inactive) | 15.3 µM (inactive) | 9.91 µM (inactive) | 15.1 µM (inactive) | 15.2 µM (inactive) | 16.5 µM (inactive) | 12 µM (inactive) | 4.81 µM (inactive) | 9.57 µM (inactive) | 13.1 µM (inactive) | 1.99 µM (inactive) | 16.3 µM (inactive) | 3.64 µM (inactive) | 11.3 µM (inactive) |  |
| CCCCn1cnnc1NS(=O)(=O)c1cc(C)c(Cl)cc1SCC(=O)O | > 10 µM (inactive) | > 10 µM (inactive) | > 10 µM | > 10 µM (inactive) | > 10 µM (inactive) | > 10 µM (inactive) | > 10 µM (inactive) | > 10 µM (inactive) | > 10 µM (inactive) | > 10 µM (inactive) | > 10 µM (inactive) | > 10 µM (inactive) | > 10 µM (inactive) | > 10 µM (inactive) | > 10 µM (inactive) | > 10 µM (inactive) | > 10 µM (inactive) | > 10 µM (inactive) | > 10 µM (inactive) |  |
| Nc1nc(SCc2ccccc2Cl)c2[nH]cnc2n1 | 73.1 µM (inactive) | 59.8 µM (inactive) | 51.5 µM | 41.8 µM (inactive) | 50.2 µM (inactive) | 74.3 µM (inactive) | 97.7 µM (inactive) | 58.6 µM (inactive) | 80.4 µM (inactive) | 24.7 µM (inactive) | 70.1 µM (inactive) | 65.3 µM (inactive) | 56 µM (inactive) | 61 µM (inactive) |  | 91.6 µM (inactive) | 25.5 µM (inactive) | > 100 µM (inactive) | 96.4 µM (inactive) |  |
| COc1ccc2c(c1)[n+]([O-])c(C#N)c(N1CCN(c3ccc([N+](=O)[O-])cc3)CC1)[n+]2[O-] | 3.08 µM (inactive) | 3.66 µM (inactive) | 3.16 µM | 1.49 µM (inactive) | 1.45 µM (inactive) | 6.87 µM (inactive) | 9.91 µM (inactive) | 3.77 µM (inactive) | > 57.4 µM (inactive) | 8.09 µM (inactive) | 5.22 µM (inactive) | 2.41 µM (inactive) | 4.42 µM (inactive) | 3.76 µM (inactive) | 8.63 µM (inactive) | 2.24 µM (inactive) | 4.24 µM (inactive) | 4.52 µM (inactive) | 7.1 µM (inactive) |  |
| O=C(O)[C@@H](NS(=O)(=O)c1ccc(F)cc1)c1ccccc1 | > 100 µM (inactive) | > 100 µM (inactive) | > 100 µM | > 100 µM (inactive) | > 100 µM (inactive) |  | > 100 µM (inactive) | > 100 µM (inactive) | > 100 µM (inactive) | > 100 µM (inactive) | > 100 µM (inactive) | > 100 µM (inactive) | > 100 µM (inactive) | > 100 µM (inactive) | > 100 µM (inactive) | > 100 µM (inactive) | > 100 µM (inactive) | > 100 µM (inactive) | > 100 µM (inactive) |  |
| C/C(CCn1[nH]c(=O)ccc1=O)=N\NC(=O)C(=O)NN | > 100 µM (inactive) |  | > 100 µM | > 100 µM (inactive) | > 100 µM (inactive) | > 100 µM (inactive) | > 100 µM (inactive) | > 100 µM (inactive) | > 100 µM (inactive) | > 100 µM (inactive) | > 100 µM (inactive) |  | > 100 µM (inactive) | > 100 µM (inactive) | > 100 µM (inactive) | > 100 µM (inactive) | > 100 µM (inactive) | > 100 µM (inactive) | > 100 µM (inactive) |  |
